For one data set, the target named is T1, hsst4 receptor (Homo sapiens, UniProt P31391).
T1 construct: expressed in transfected cells; host or cells: Chinese hamster lung fibroblast (CCL39) cells
Description: radioligand-binding displacement assay ([125I]LTT-SRIF28), receptor expressed in CCL39 cells. The conditions noted are these: for Kd: hsst4, [125I]LTT-SRIF28 displacement. As to the method:
The generated peptides are tested for their affinity to bind to human SRIF receptors expressed in Chinese hamster lung fibroblast (CCL39) cells. This is achieved in radioligand-binding assays, a displacement experiment in which the concentration of a substance is measured which is necessary for the replacement of 50% of a specifically bound radioligand ([^125I]LTT-SRIF28). Specific binding is measured as the total binding of receptor-specific radioligand minus the amount of radioligand bound in presence of unmarked SRIF-14 (100 nM, nonspecific binding).

The nature of data set [1]: high throughput solubility (HT-Solubility). The conditions noted are these: for water solubility (in words): see FIG. 10. It is filed as physicochemical.
Data set [2] is described as follows: high throughput permeability (HT-Permeability, log Pe). It is filed as physicochemical. The conditions noted are these: PAMPA, Pe in cm/s.
A short description of data set [3]: HT-logP o/w, high throughput assay based on artificial liquid membrane permeability. It is filed as physicochemical. The conditions noted are these: octanol/water, read-out: HT LogP ohw. From the text:
To be absorbed and transported by passive diffusion, drugs must be sufficiently lipophilic to penetrate the lipid cores of membranes, but not too lipophilic that they get retained and accumulated there. The lipophilictity of a compound is expressed by the octanol/water partition coefficient or distribution coefficient. A first approximation of substance polarity can either be given by computer assisted calculations giving Clog P values or by measurement of the partition coefficients in high-throughput assays (HT-log P o/w) (Faller et al., 2004; Wohnsland et al., 2001).
Octanol/water partition coefficients are measured in a high throughput assay based on artificial liquid membrane permeability. […] Still many approaches to calculate log P values are limited due to a lack of parameterization of certain fragments and fail with increasing molecular weight which implicates higher structural complexity. Similar problems and failures are observed in chromatographic determinations of log P: Peptides might undergo structural changes driven by interactions with the stationary phase. Decisive interactions between the stationary phase and the defolded analytes are therefore also based on the linear peptide sequence. For this reason measured HT-log P o/w values based on chromatographic assays employing stationary phases may lead to erroneous results.

Where [4] appears, read: pH 1, pH 1.0, read-out: HT-Solubility pH 1.0.
The mark [5] stands for this setting: pH 6.8, pH 6.8, read-out: HT-Solubility pH 6.8.
Setting [6] is: pH 4, pH 4.0, read-out: HT-Permeability logPe pH 4.0 (converted).
Setting [7] is: pH 8, pH 8.0, read-out: HT-Permeability logPe pH 8.0 (converted).
The mark [8] stands for this setting: pH 6.8, pH 6.8, read-out: HT-Permeability logPe pH 6.8 (converted).

Values after ≈ are worked out from the molar mass of the structure shown. Where two headings read alike, the source gives them in different places.

T1 sequence (P31391 whole entry): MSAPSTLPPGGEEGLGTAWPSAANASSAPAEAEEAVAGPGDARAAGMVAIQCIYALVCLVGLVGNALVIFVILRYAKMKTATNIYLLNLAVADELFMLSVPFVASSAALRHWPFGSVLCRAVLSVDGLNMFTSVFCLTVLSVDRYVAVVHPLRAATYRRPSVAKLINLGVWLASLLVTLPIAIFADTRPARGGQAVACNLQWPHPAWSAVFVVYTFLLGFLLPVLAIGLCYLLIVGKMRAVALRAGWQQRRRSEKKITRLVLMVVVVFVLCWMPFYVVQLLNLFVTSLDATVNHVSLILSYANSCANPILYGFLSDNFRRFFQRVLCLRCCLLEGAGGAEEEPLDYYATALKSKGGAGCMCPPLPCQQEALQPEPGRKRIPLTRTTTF

For the molecule `C[C@H]1OC(=O)C[C@H]1NC(=O)C[C@H](CCCCN)NC(=O)[C@@H](Cc1c[nH]c2ccccc12)NC(=O)C[C@H](Cc1ccccc1)NC(=O)C1CCCCC1` [Compound 5, Cyclohexanoyl-(S)-β^3-HPhe-(R)-Trp-(S)-β^3-HLys-(R)-4-amino-(R)-5-methyl-dihydro-furan-2-one], the dissociation constant Kd on hsst4 receptor was found to be 1200 nM. The solubility turned out to be 35.7 µg/mL (≈ 49.9 µM) in data set [1] (setting [4]) and 14.3 µg/mL (≈ 20 µM) in data set [1] (setting [5]). In addition, in data set [2] (setting [6]), the Papp was 0.1 ×10⁻⁶ cm/s. Besides, the logP in data set [3] was 3.9.
For `CC(=O)N[C@H](CC(=O)N[C@H](Cc1c[nH]c2ccccc12)C(=O)N[C@@H](CCCCN)CC(=O)N[C@H](CC(=O)N(C)CCc1ccccc1)C(C)C)Cc1ccccc1` [Compound 25, Ac—(S)-β^3-HPhe-(R)-Trp-(S)-β^3-HLys-(R)-β^3-Leu-methyl-phenethyl-amide] the same measures were 115 nM, 78 µg/mL (≈ 100 µM), 15.6 µg/mL (≈ 20 µM), 0.1 ×10⁻⁶ cm/s and 3.3.
For `CCN(CC)C(=O)C[C@@H](NC(=O)C[C@H](CCCCN)NC(=O)[C@@H](Cc1c[nH]c2ccccc12)NC(=O)C[C@H](Cc1ccccc1)NC(C)=O)C(C)C` [Compound 22, Ac—(S)-β^3-HPhe-(R)-Trp-(S)-β^3-HLys-(R)-β^3-Leu-diethyl-amide] the same measures were 166 nM, 14.4 µg/mL (≈ 20.1 µM), 14.4 µg/mL (≈ 20.1 µM), 0.1 ×10⁻⁶ cm/s and 2.3.
For `NCCCC[C@@H](CC(=O)NC1CCCC1)NC(=O)[C@@H](Cc1c[nH]c2ccccc12)NC(=O)C[C@H](Cc1ccccc1)NC(=O)CCc1ccccc1` [Compound 32, Dihydrocinnemoyl-(S)-β^3-HPhe-(R)-Trp-(S)-β^3-HLys-cyclopentyl-amide] the same measures were 417 nM, 70.7 µg/mL (≈ 100 µM), 14.1 µg/mL (≈ 19.9 µM), 0.1 ×10⁻⁶ cm/s and 4.
At hsst4 receptor, `CCCCCNC(=O)C[C@H](CCCCN)NC(=O)[C@@H](Cc1c[nH]c2ccccc12)NC(=O)C[C@H](Cc1ccccc1)NC(C)=O` [Compound 44] registered a Kd of 10 nM. The solubility in data set [1] (setting [4]) was 124 µg/mL (≈ 200 µM). The “HT-Solubility pH 6.8” value in data set [1] (pH 6.8) was 0.0309 g 1-1. Besides, the “water solubility (in words)” value in data set [1] is listed as “medium to good”. Also, the Papp is 6.31 ×10⁻⁶ cm/s in data set [2] (setting [6]) and 25.1 ×10⁻⁶ cm/s in data set [2] (setting [7]). In addition, the logP in data set [3] turned out to be 3.3.
With `C[C@H]1OC(=O)C[C@H]1NC(=O)C[C@H](CCCCN)NC(=O)[C@@H](Cc1cn(C)c2ccccc12)NC(=O)C[C@H](Cc1ccccc1)NC(=O)CCc1ccccc1` [Compound 19, Dihydrocinnemoyl-(S)-β^3-HPhe-(R)-1-Me-Trp-(S)-β^3-HLys-(R)-4-amino-(R)-5-methyl-dihydro-furan-2-one], on hsst4 receptor, the Kd turned out to be 708 nM. Besides, the solubility in data set [1] (setting [4]) and in data set [1] (setting [5]) was 15 µg/mL (≈ 20 µM) each time. Also, in data set [2] (setting [6]), the Papp was 0.1 ×10⁻⁶ cm/s. Further, in data set [3], the logP was 3.7.
`CCCCNC(=O)C[C@H](CCCCN)NC(=O)[C@@H](Cc1c[nH]c2ccccc12)NC(=O)C[C@H](Cc1ccccc1)NC(C)=O` [Compound 52, Ace-(S)-β^3-HPhe-(R)-Trp-(S)-β^3-HLys-butyl-amide] registered an equilibrium dissociation constant (Kd) at hsst4 receptor of 16 nM. Further, the solubility in data set [1] (setting [4]) and in data set [1] (setting [5]) was 121 µg/mL (≈ 200 µM) each time. The “water solubility (in words)” value in data set [1] was “medium to good”. In addition, the Papp in data set [2] (setting [6]) is 6.31 ×10⁻⁶ cm/s; in data set [2] (setting [8]), 1.58 ×10⁻⁶ cm/s; in data set [2] (setting [7]), 1 ×10⁻⁶ cm/s. For the same molecule, the logP in data set [3] worked out at 3.1.
`C[C@H]1OC(=O)C[C@H]1NC(=O)C[C@H](CCCCN)NC(=O)[C@@H](Cc1cn(C)c2ccccc12)NC(=O)C[C@H](Cc1ccccc1)NC(=O)C12CC3CC(CC(C3)C1)C2` [Compound 20, Adamantoyl-(S)-β^3-HPhe-(R)-1-Me-Trp-(S)-β^3-HLys-(R)-4-amino-(R)-5-methyl-dihydro-furan-2-one] came in with a Kd on hsst4 receptor of 2950 nM. Further, the solubility in data set [1] (setting [4]) and in data set [1] (setting [5]) was 15.6 µg/mL (≈ 20 µM) each time. For the same molecule, the Papp in data set [2] (setting [6]) was 0.1 ×10⁻⁶ cm/s. In addition, the logP in data set [3] was found to be 2.9.
Take `CCCCCCN(C)C(=O)C[C@H](CCCCN)NC(=O)[C@@H](Cc1c[nH]c2ccccc12)N(C)C(=O)C[C@H](Cc1ccccc1)NC(=O)CC` [Compound 65, Propionyl-(S)-β^3-HPhe-(R)—N-Me-Trp-(S)-β^3-HLys-methyl-hexyl-amide]: binding at hsst4 receptor was characterised by a dissociation constant (Kd) of 57 nM. The solubility in data set [1] (setting [4]) and in data set [1] (setting [5]) was 135 µg/mL (≈ 200 µM) throughout. In addition, the “water solubility (in words)” value in data set [1] is “highest solubility values”. Further, the figures for the Papp in data set [2] (setting [6]), in data set [2] (setting [8]) and in data set [2] (setting [7]) were 12.6 ×10⁻⁶ cm/s, 2.51 ×10⁻⁶ cm/s and 5.01 ×10⁻⁶ cm/s, respectively. The logP in data set [3] stood at 4.1.
On to `C[C@@H](O)[C@@H](CC(N)=O)NC(=O)C[C@H](CCCCN)NC(=O)[C@@H](Cc1c[nH]c2ccccc12)NC(=O)C[C@H](Cc1ccccc1)NC(=O)C12CC3CC(CC(C3)C1)C2` [Compound 18, Adamantoyl-(S)-β^3-HPhe-(R)-Trp-(S)-β^3-HLys-(R), (R)—HThr-NH2], for which the Kd at hsst4 receptor was determined as 6170 nM. For the same molecule, the solubility was determined as 78.4 µg/mL (≈ 100 µM) in data set [1] (setting [4]) and 15.7 µg/mL (≈ 20 µM) in data set [1] (setting [5]). The Papp in data set [2] (setting [6]) is 0.1 ×10⁻⁶ cm/s. Besides, the logP in data set [3] is 3.2.
For `CCC(=O)N(C)[C@H](CC(=O)N[C@H](Cc1c[nH]c2ccccc12)C(=O)N[C@@H](CCCCN)CC(=O)NC1CCCC1)Cc1ccccc1` [Compound 46, Propionyl-N-Me-(S)-β^3-HPhe-(R)-Trp-(S)-β^3-HLys-cyclopentyl-amide], the “binding affinity to hsst4 (in words)” value at hsst4 receptor is “lower binding affinities”. The solubility in data set [1] (setting [4]) and in data set [1] (setting [5]) was 129 µg/mL (≈ 200 µM) in each case. For the same molecule, the Papp in data set [2] (setting [6]) was 1 ×10⁻⁶ cm/s. In data set [3], the logP is 3.3.
In turn, `CC(=O)N[C@H](CC(=O)N[C@H](Cc1c[nH]c2ccccc12)C(=O)N[C@@H](CCCCN)CC(=O)NC1CCCC1)Cc1ccccc1` [Compound 30] registered a Kd at hsst4 receptor of 62 nM.
As for `CCCCN(C)C(=O)C[C@H](CCCCN)NC(=O)[C@@H](Cc1c[nH]c2ccccc12)NC(=O)C[C@H](Cc1ccccc1)NC(=O)CCC` [Compound 42, Butyroyl-(S)-β^3-HPhe-(R)-Trp-(S)-β^3-HLys-methyl-butyl-amide], the solubility was 64.7 µg/mL (≈ 100 µM) in data set [1] (setting [4]) and 129 µg/mL (≈ 200 µM) in data set [1] (setting [5]). In data set [1], the “water solubility (in words)” value was “highest solubility values”. Further, the Papp in data set [2] (setting [6]) was 1 ×10⁻⁶ cm/s; in data set [2] (setting [8]) it was 2 ×10⁻⁶ cm/s; in data set [2] (setting [7]), 5.01 ×10⁻⁶ cm/s. For the same molecule, the logP in data set [3] is 3.7.
For `NCCCC[C@@H](CC(=O)NC1CCCC1)NC(=O)[C@@H](Cc1c[nH]c2ccccc12)NC(=O)C[C@@H](N)Cc1ccccc1` [Compound 62, (S)-β^3-HPhe-(R)-Trp-(S)-β^3-HLys-cyclopentyl-amide], the solubility in data set [1] (setting [4]) and in data set [1] (setting [5]) was 115 µg/mL (≈ 200 µM) throughout. The Papp in data set [2] (setting [6]) is 5.01 ×10⁻⁶ cm/s; in data set [2] (setting [7]), 3.98 ×10⁻⁶ cm/s. The logP in data set [3] worked out at 2.9.
As to `CCCCCCN(C)C(=O)C[C@H](CCCCN)NC(=O)[C@@H](Cc1c[nH]c2ccccc12)N(Cc1ccccc1)C(=O)C[C@H](Cc1ccccc1)NC(=O)CC` [Compound 68], the solubility in data set [1] (setting [4]) is 75.1 µg/mL (≈ 100 µM); in data set [1] (setting [5]), 15 µg/mL (≈ 20 µM). Also, the “water solubility (in words)” value in data set [1] was “does not allow for good water solubilities”. Further, the Papp in data set [2] (setting [6]) is 0.1 ×10⁻⁶ cm/s. For the same molecule, the logP in data set [3] amounted to 5.5.
